# In PubChem BioAssay AID1963448 (Molecular Pharmacology Branch, DTP, NCI, 2024):
# Values joined by “and” are separate entries in the source; they are usually repeats but may differ in a detail not shown here. Equal entries are not always repeated.
# System: 616215-338-R-J1-PDC complex spheroid growth, % test/control
# Experiment: Anticancer human tumor 616215-338-R-J1-PDC patient-derived colon adenocarcinoma cell line growth inhibition [Asc]
# Details: for viability, T/C: stronger effect = lower value
# Description: Multicellular complex tumor spheroid response to apoptosis pathway targeting inhibitors Alrizomadlin, Pelcitoclax, and Dasminapant in combination with a variety of drugs and investigational agents in selected tumor cell lines
# The MDM2 inhibitor alrizomadlin, the Bcl-2/Bcl-xL inhibitor pelcitoclax, and the IAPs inhibitor dasminapant were evaluated both individually and in combination with standard of care and investigational anticancer small molecules within a complex spheroid model of solid tumors. . Complex spheroids include a stromal component modeled by human endothelial cells (HUVEC) and fibroblasts modeled by human mesenchymal stem cells (MSCs). The concentration ranges selected for each drug and investigational agent were based upon clinically achievable concentrations if the clinical Cmax of the agent was known.
# Compounds. The drugs and investigational agents: alrizomadlin (APG-115; NSC831270), pelcitoclax (APG-1252; NSC835773), dasminapant (APG-1387;NSC834197), TAK-243 (NSC785004), copanlisib (NSC809693), olaparib (NSC753686), talazoparib (NSC767125), cobimetinib (NSC 768068), eltanexor (KPT-8602, NSC 794443), abemaciclib (NSC 768073), sotorasib (NSC818433), adagrasib (NSC 831453), MRTX-1133 (NSC 836407), Iadademestat (ORY1001, NSC 806812), and RMC-4630 (NSC839698), were obtained from the NCI Developmental Therapeutics Program Chemical Repository. The FDA-approved anticancer drug set is available from the Developmental Therapeutics Program at https://dtp.cancer.gov/organization/dscb/obtaining/available plates.htm. […] The stock solutions were prepared in dimethyl sulfoxide (DMSO, Sigma-Aldrich, St. Louis, MO, cat. D2650) at 800-fold the tested concentration and stored at -70 degrees C prior to their use. All drugs and investigational agents were tested over a range starting from a high concentration at or near the clinical Cmax and decreasing in half-log increments. If the clinical Cmax for an agent had not been determined, the highest concentration tested was 10 microM.
# The patient-derived cancer (PDC) cell lines include five colon adenocarcinomas: 186277-243-T-J2-PDC, 616215-338-R-J1-PDC, 439559-082-T-J2-PDC, 463943-066-T-J2-PDC, and 519858-162-T-J1-PDC; three pancreatic carcinomas: 323965-272-R-J2-PDC, 521955-158-R6-J3-PDC, and 521955-158-R2-J5-PDC; two uterine sarcomas: 327498-152-R-J2-PDC and 993429-296-R-J1-PDC; two rhabdomyosarcomas: 755483-174-R-J1-PDC and 772245-204-R-J1-PDC; two soft tissue sarcomas: 126254-015-R-J1-PDC and 494315-158-R-J1-PDC; two malignant fibrous histiocytomas: 317291-083-R-J1-PDC and 596521-263-R-J1-PDC; two breast carcinomas: 171881-019-R-J1-PDC and 885512-296-R-J2-PDC; and one ovarian carcinoma: 6556581-035-R-J-PDC were obtained from the NCI PDMR, (https://pdmr.cancer.gov). The established cell lines HSSY-2 synovial sarcoma (RRID:CVCL 8719), SYO-1 synovial sarcoma (RRID:CVCL_7146), MPNST malignant peripheral neural sheath tumor were obtained from the Sloan Kettering Institute. The following established cell lines were purchased from the American Type Culture Collection (ATCC, Manassas, VA), Sor the received from the NCI repository:, PANC-1 pancreatic carcinoma (CRL-1469, RRID:CVCL_0480), OVCAR-5 ovarian carcinoma (RRID:CVCL_1628), OVCAR-8 ovarian carcinoma (RRID:CVCL_1629), , MCF-7 breast carcinoma (CRL-12584, RRID:CVCL_0031), MDA-MB-231 breast carcinoma (CRL-12532, RRID:CVCL_0062), NCI-H1876 small cell lung carcinoma (CRL-5902, RRID:CVCL_1503), NCI-H510A small cell lung carcinoma (HTB-184, RRID:CVCL_1565), NCI-H1417 (CRL-5869, RRID:CVCL_1469), and NCI-H196 small cell lung carcinoma (CRL-5823, RRID:CVCL_1509). Dr. Peter Houghton (Greehey Children's Cancer Research Institute, University of Texas Health Science Center, San Antonio, TX) provided Rh-18 rhabdomyosarcoma (RRID:CVCL_1659). Pooled donor human umbilical vein endothelial cells (HUVEC, Lonza, cat. CC-2519) and human mesenchymal stem cells (hMSC, Lonza, cat. PT-2501) were purchased from Lonza (Walkersville, MD).
# Cell Culture. […]
# 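Note: spheroids exposed to agents for seven days before readout.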
# 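Throughout, for viability, T/C: 100% = DMSO vehicle control viability.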
SMILES,IC50 (curve of compound),"viability, T/C (compound 0.0316 µM)","viability, T/C (compound 0.1 µM)","viability, T/C (compound 0.316 µM)","viability, T/C (compound 1 µM)","viability, T/C (compound 0.00316 µM)","viability, T/C (compound 0.01 µM)",further results
C=C(F)C(=O)N1CCN(c2nc(OCC3CCCN3C)nc3c2CCN(c2cccc4cccc(Cl)c24)C3)CC1CC#N (configuration not stated),,75.3% and 90.8% and 99.4%,72.6% and 95.6% and 102%,59.3% and 97.8% and 100%,38.8% and 98.2% and 107%,,,"viability, T/C (compound 10 µM): 0.82% and 0.6% and 0.47%"
CCN1C(C(=O)NC23CCC(C(=O)O)(CC2)CC3)C(c2cccc(Cl)c2F)C2(C(=O)Nc3cc(Cl)ccc32)C12CCCCC2 (configuration not stated),965 nM and > 3000 nM,,,,,,,"viability, T/C (compound 0.00949 µM): 106% and 100%; viability, T/C (compound 0.03 µM): 96.6% [middle of 15 runs]"
CNC(C)C(=O)NC1CN(S(=O)(=O)c2cccc(S(=O)(=O)N3CCC4CCC(C(=O)NC(c5ccccc5)c5ccccc5)N4C(=O)C(NC(=O)C(C)NC)C3)c2)CCC2CCC(C(=O)NC(c3ccccc3)c3ccccc3)N2C1=O (configuration not stated),> 1000 nM,,101% [middle of 9 runs],102% [middle of 9 runs],101% [middle of 9 runs],,105% [middle of 9 runs],
Cc1c(S(C)(=O)=O)c(-c2cc(F)cc(N3CCN(c4ccc(NS(=O)(=O)c5ccc(NC(CCN6CCC(C(=O)OCCCP(=O)(O)O)CC6)CSc6ccccc6)c(S(=O)(=O)C(F)(F)F)c5)cc4)CC3)c2)c(-c2ccc(Cl)cc2)n1C(C)C (configuration not stated),,,89.8% [middle of 14 runs],88.1% [middle of 14 runs],69.6% [middle of 14 runs],,,"viability, T/C (compound 3.16 µM): 38% [middle of 13 runs]; viability, T/C (compound 10 µM): 27.6% [middle of 14 runs]; IC50 (compound alone, run of 10/11/2022): 1.96 µM [middle of 13 runs]"
Cc1nc(N2CCC3(CC2)COC(C)C3N)c(CO)nc1Sc1ccnc(N)c1Cl (configuration not stated),871 nM and > 3000 nM,,,,,,,"viability, T/C (compound 0.00949 µM): 102% and 94% and 101%; viability, T/C (compound 0.03 µM): 90.5% and 98.1% and 102%; viability, T/C (compound 0.0949 µM): 104% and 105% and 103%; viability, T/C (compound 0.3 µM): 81.2% and 99.7% and 101%; viability, T/C (compound 0.949 µM): 48% and 102% (2×); viability, T/C (compound 3 µM): 11.8% and 95.5% and 91.3%"
NC(=O)C(=Cn1cnc(-c2cc(C(F)(F)F)cc(C(F)(F)F)c2)n1)c1cncnc1,,,,,,,,"viability, T/C (compound 0.000949 µM): 97.1% and 89.2% and 43.2%; viability, T/C (compound 0.003 µM): 96.8% and 85% and 52.7%; viability, T/C (compound 0.00949 µM): 99.3% and 95.9% and 24.4%; viability, T/C (compound 0.03 µM): 100% and 86.7% and 29.2%; viability, T/C (compound 0.0949 µM): 95.2% and 81.8% and 20.7%; viability, T/C (compound 0.3 µM): 97.6% and 91.7% and 30.1%"
NC1CCC(NC2CC2c2ccccc2)CC1 (configuration not stated),> 100 nM,91.6% and 91.8% and 99.5%,92.8% and 94.4% and 97.4%,,,90.4% and 95.5% and 101%,92.3% and 96.8% and 93.5%,"viability, T/C (compound 0.000316 µM): 96.5% and 100% and 109%; viability, T/C (compound 0.001 µM): 102% (2×) and 97.4%"
O=C(c1ccc(F)c(F)c1Nc1ccc(I)cc1F)N1CC(O)([C@@H]2CCCCN2)C1,113 nM and 114 nM and 46.2 nM,74.5% and 93.8% and 67.1%,54.4% and 51.2% and 15.8%,22.1% and 19.3% and 4.03%,1.33% and 0.76% and 3.69%,89.5% and 99.8% and 108%,84.3% and 101% and 100%,

# Now from value to molecule, other results behind:
IC50 (curve of compound),SMILES,"viability, T/C (compound 0.0316 µM)","viability, T/C (compound 0.1 µM)","viability, T/C (compound 0.316 µM)","viability, T/C (compound 1 µM)","viability, T/C (compound 0.00316 µM)","viability, T/C (compound 0.01 µM)",further results
3120 nM and > 10000 nM,C#Cc1c(F)ccc2cc(O)cc(-c3ncc4c(N5CC6CCC(C5)N6)nc(OCC56CCCN5CC(F)C6)nc4c3F)c12 (configuration not stated),105% and 96.2% and 99%,96% and 104% and 102%,104% (2×) and 94.8%,106% and 113% and 101%,,,"viability, T/C (compound 3.16 µM): 49.3% and 108% and 101%"
> 10000 nM and 3750 nM,C=CC(=O)N1CCN(c2nc(=O)n(-c3c(C)ccnc3C(C)C)c3nc(-c4c(O)cccc4F)c(F)cc23)C(C)C1 (configuration not stated),97% and 99.6% and 107%,95.3% and 101% and 91.9%,102% and 98.2% and 97.2%,102% and 100% and 74.5%,,,"viability, T/C (compound 3.16 µM): 106% and 109% and 52.6%; viability, T/C (compound 10 µM): 102% and 106% and 35.4%"
> 1000 nM and 543 nM,CCN1CCN(Cc2ccc(Nc3ncc(F)c(-c4cc(F)c5nc(C)n(C(C)C)c5c4)n3)nc2)CC1,96.5% and 104% and 78.5%,102% and 106% and 82.5%,122% and 102% and 65.8%,130% and 117% and 34.9%,98.2% and 91.4% and 109%,97.2% and 108% and 113%,
305 nM and 281 nM and 62.4 nM,COc1c(OCCCN2CCOCC2)ccc2c3n(c(=NC(=O)c4cnc(N)nc4)nc12)CCN3,111% and 100% and 68%,95.3% and 105% and 36.9%,48.7% and 43.9% and 18.3%,28.9% and 26% and 11.2%,102% (2×) and 105%,107% and 102% and 98.3%,
> 100 nM,Cn1ncnc1[C@H]1c2n[nH]c(=O)c3cc(F)cc(c23)N[C@@H]1c1ccc(F)cc1,95.7% and 100% and 102%,108% (2×) and 100%,,,97.1% and 98.9% and 93.8%,99% and 106% and 100%,"viability, T/C (compound 0.000316 µM): 93.4% and 104% and 99.2%; viability, T/C (compound 0.001 µM): 96.2% and 100% and 92.5%"
> 10000 nM,O=C(c1cc(Cc2n[nH]c(=O)c3ccccc23)ccc1F)N1CCN(C(=O)C2CC2)CC1,97.1% and 97.4% and 112%,99.8% and 94.7% and 98.3%,97.7% and 99.4% and 100%,96.5% and 94.7% and 99.3%,,,"viability, T/C (compound 3.16 µM): 96.8% and 106% and 90.6%; viability, T/C (compound 10 µM): 91.1% and 90.2% and 89.1%"
